Assay results: patent US20220031690A1, “ANTI-NEURODEGENERATIVE DISEASE AGENT” (Hayashibara Co., Ltd., priority 2018, published 2022)

Legend:
[1] = system: PC12-HS cells; test: Evaluation method B: neurite-outgrowth promoting activity in the presence of NGF; assay type: cell-based, rat; conditions: for Neurite-outgrowth rate (%) / Action on PC12-HS neurite-outgrowth promotion (500 ng/ml): NGF 10 ng/ml; for Action on PC12-HS neurite-outgrowth promotion (500 ng/ml): 3 days, class of neurite-outgrowth rate; for neurite-outgrowth promoting activity (in words): 200 and 1,000 nM, comment on Table 2
Source text: (§1) As a model of the nerve cell, the NGF (nerve growth factor) highly sensitive strain of PC12 cell derived from the rat adrenal pheochromocytoma (hereinafter referred to as “PC12-HS cell”; JCRB cell bank, National Research and Development Institute of Health and Nutrition), which has been widely used as a suitable model for research on human neurodegenerative disease, was used. As the test compound, […] of trimethine cyanine dye compounds; NK-5 (Chemical formula 2), NK-36 (Chemical formula 3), NK-44 (Chemical formula 5) and dye compounds represented by Chemical formulae 12 to 18, and NK-6 (Chemical formula 7), which is a monomethine cyanine dye, were selected. In addition, two kinds of ethylene cross-linked dyes (Chemical formulae 19 and 20), 15 kinds of monomethine cyanine dyes (Chemical formulae 21 to 35), and seven kinds of trimethine cyanine dyes (Chemical formulae 36 to 42), which were expected to have a good neurocyte growth acceleration activity and/or neurite-outgrowth promoting activity in the screening disclosed in Patent literature 6, were also re-evaluated for comparison. The Chemical formulae 12 to 42 are shown below.
(§2) The cyanine dye compounds subjected to the test (purity 97% by mass or more, synthesized by Hayashibara Co., Ltd., Okayama, Japan) were individually dissolved in DMSO (product number “D8418”, commercialized by SIGMA Corporation) at a concentration of 5 mg/ml, and the solutions were then filtered through DMSO-resistant membrane (“Millex-LGS LLG025SS”, commercialized by Millipore Corporation) and stored at 25° C. in a dark condition. At the time of use, they were further diluted with Dulbecco's Medium (hereinafter, abbreviated as “D-MEM medium”, commercialized by Nissui Pharmaceutical Co., Ltd.) supplemented by 10% by volume of fetal bovine serum (FBS), and subjected to the test.
As in the case of evaluation of neurocyte growth accelerating activity (Evaluation method A), 50 μl/well of each test compound solution, prepared by diluting with the culture medium to give a final concentration of 500 ng/ml, and the culture medium containing 20 ng/ml of mouse NGF (mouse derived, final concentration 10 ng/ml, commercialized by Chemicon International, Inc., CA, USA) (50 μl/well) were added to the precultured PC12-HS cells in each well, and then cultured for three days. Culture medium was removed on day 3 of culture, and cells were fixed by adding 100 μl/well of 10% by volume of glutaraldehyde and standing for 20 minutes at room temperature. As a negative control, PC12-HS cells, cultured for three days with culture medium, were fixed with glutaraldehyde similarly as above. Fixed cells were observed under a microscope to assess the neurite-outgrowth. The neurite-outgrowth rate (%) was determined by observing the cells using a microscope by adjusting the magnitude to give about 100 cells in one visual field, counting the number of cells having neurites twice or more in length of the cell body (major axis), dividing by the total number of cells in the same visual field, and multiplying by 100. Measurements were carried out at three points for each test compound. […] In this experiment, the neurite-outgrowth rate was 5% or less when NGF was added (final concentration 10 ng/ml) without the addition of the test compound.
The method was based on Experiment 1-1, except the concentrations of the test compounds were set to three doses of 40 nM, 200 nM and 1,000 nM for evaluation method A (neurocyte growth accelerating effect), and two doses of 200 nM and 1,000 nM for evaluation method B (neurite outgrowth promoting effect). Measurements were performed in triplicate for each concentration of each test compound in both evaluation methods A and B. The result of the evaluation method A was expressed as a cell proliferation rate (%) by determined a relative percentage (%) when the value of the negative control to which the test compound was not added, was regarded as 100%. […]

[2] = system: PC12-HS cells; test: Evaluation method A: neurocyte growth acceleration activity (Alamar blue); assay type: cell-based, rat; conditions: for Cell proliferation rate (%): negative control = 100%; for neurocyte growth acceleration activity (in words): 40, 200 and 1,000 nM, comment on Table 2
Source text: as §1, §2
PC12-HS cells were subjected to tests after frozen stock cultured cells were thawed and cultured with a D-MEM medium supplemented with 10% by volume of FBS (Hereinafter, when the term “culture” is simply used, it means that the cells are statically cultured in an incubator controlled at 37° C. under 5% by volume of CO2 conditions). Cells used in the test were collected using 0.25% by weight of trypsin solution, then diluted with a D-MEM medium supplemented with 10% by volume of FBS (hereinafter referred to as “culture medium”), seeded into collagen-coated 96-well plates (commercialized by Falcon, Tokyo, Japan, “Microtest Plate, Cell Culture, Flat Bottom”) to obtain 5×10^3 cells/100 μl/well, and cultured for 24 hours (hereinafter referred to as “pre-culture”). Then, the above test samples were diluted with a culture medium, and 100 μl of diluted solution of the test compounds were added to each well so that the final concentration of the test compounds in the wells became 50 ng/ml, and the cells were cultured for another three days. On day 3, the cultures supernatant was removed from each well, 200 μl of culture medium containing 10% by volume of Alamar blue reagents (commercialized by Trek Diagnostic Systems Inc., Ohio, USA) were added to each well, and the cells were cultured for 6 hours. After culturing for 6 hours, the cells were measured for fluorescent intensity at a wavelength of 544-590 nm by “FlexStation 3”, a product name of a fluorescent plate reader (commercialized by Japan Molecular Devices Corporation, Tokyo, Japan). […] Measurements were performed for each test compound in triplicate, and the mean values were shown.
The method was based on Experiment 1-1, except the concentrations of the test compounds were set to three doses of 40 nM, 200 nM and 1,000 nM for evaluation method A (neurocyte growth accelerating effect), and two doses of 200 nM and 1,000 nM for evaluation method B (neurite outgrowth promoting effect). […]

[3] = DPPH radical scavenging ability (absorbance method); assay type: biochemical; conditions: ethanol, room temperature, 2 hours, absorbance at 490 nm
Source text: 2,2-Diphenyl-1-picrylhydrazyl (hereinafter referred to as “DPPH”) is a radical with an unpaired electron and has the oxidizing ability of other substances. In addition, because it is stable and easy to handle, it is widely used as an artificial radical-like substance for measuring the antioxidant ability of antioxidants. When DPPH reacts with a substance having antioxidant ability, it loses its own oxidizing ability and its color changes from deep purple to […].
DPPH (commercialized by Tokyo Kasei Kogyo Co., Ltd., Tokyo, Japan) was dissolved in ethanol to prepare a 167 μM DPPH ethanol solution, and 90 μl of the solution was added to each well of the 96-well microplate. A 60 μl each of the test compound serially diluted with ethanol was added to the DPPH ethanol solution, and the mixture was reacted at room temperature for 2 hours, and then the absorbance at 490 nm was measured. […] From those value, the 50% inhibitory concentration of the DPPH radical (Hereinafter, it is referred to as “IC50”) was calculated.

| SMILES | Neurite-outgrowth rate (%) ([1]; 1.000 nM) | Neurite-outgrowth rate (%) ([1]; 200 nM) | Action on PC12-HS neurite-outgrowth promotion (500 ng/ml) [1] | neurite-outgrowth promoting activity (in words) [1] | Cell proliferation rate (%) ([2]; 1.000 nM) | Cell proliferation rate (%) ([2]; 40 nM) | Cell proliferation rate (%) ([2]; 200 nM) | neurocyte growth acceleration activity (in words) [2] | Action on PC12-HS growth acceleration (50 ng/ml) ([2]; 50 ng/ml, 3 days culture, class of cell proliferation rate vs negative control = 100%) | IC50 [3] [mM] |
| --- | --- | --- | --- | --- | --- | --- | --- | --- | --- | --- |
| CCN1C(=CC(C)=Cc2sc3ccccc3[n+]2CCCS(=O)(=O)[O-])Sc2ccccc21 [NK-4781] | 88.3 | 31.2 | ⊚ (45% or more was judged to be more potent than NK-4 (“double circle”)) | stronger neurite-outgrowth promoting activity than NK-4 | 89.1 | 110.0 | 106.6 | almost no growth acceleration activity |  |  |
| CC1=CO/C(=C\C=C\c2occ(C)[n+]2C)N1C.F[P-](F)(F)(F)(F)F [NK-10089] | 29.3 | 0.0 |  |  | 91.6 | 110.6 | 123.4 | slightly weaker activity than NK-6 and NK-36 | ◯ (the relative value of 130% to 169% was judged to be equivalent to NK-4 (“circle”)) |  |
| COC1C=CC=CC1=CC=CC1=[N+](C)c2ccc3ccccc3c2C1(C)C.Cc1ccc(S(=O)(=O)[O-])cc1 (stereo not drawn) [NK-10214] | 48.8 | 23.6 | ⊚ (45% or more was judged to be more potent than NK-4 (“double circle”)) | stronger neurite-outgrowth promoting activity than NK-4 | 103.3 | 109.3 | 123.1 | slightly weaker activity than NK-6 and NK-36 |  |  |
| CCn1ccc(=O)c2ccccc21 [NKX-4076] |  |  |  |  |  |  |  |  |  | ≥ 10 |
